From patent publication US20050130989A1, “N-arylheteroaromatic products compositions containing them and use thereof” (Aventis Pharma S. A., priority 2003, published 2005)
pIC50: −log10 of the molar value. Counter-ions that a name gives are not always drawn.

Tests used:
[1] = molecular target: T1, tubulin (Sus scrofa, UniProt P02550+P02554); experiment: Evaluation of the inhibition of tubulin polymerization (turbidimetry); format: biochemical, pig; settings: tubulin 10 μm (1 mg/ml), 37° C., turbidity at 350 nm; concentration that inhibits the rate of polymerization by 50%; read-out: Inhibition of tubulin polymerization IC 50 (μm)
T1 construct: Tubulin is purified from pig brain according to published methods; from tissue; host or cells: pig brain
T1 sequence (P02550 whole entry): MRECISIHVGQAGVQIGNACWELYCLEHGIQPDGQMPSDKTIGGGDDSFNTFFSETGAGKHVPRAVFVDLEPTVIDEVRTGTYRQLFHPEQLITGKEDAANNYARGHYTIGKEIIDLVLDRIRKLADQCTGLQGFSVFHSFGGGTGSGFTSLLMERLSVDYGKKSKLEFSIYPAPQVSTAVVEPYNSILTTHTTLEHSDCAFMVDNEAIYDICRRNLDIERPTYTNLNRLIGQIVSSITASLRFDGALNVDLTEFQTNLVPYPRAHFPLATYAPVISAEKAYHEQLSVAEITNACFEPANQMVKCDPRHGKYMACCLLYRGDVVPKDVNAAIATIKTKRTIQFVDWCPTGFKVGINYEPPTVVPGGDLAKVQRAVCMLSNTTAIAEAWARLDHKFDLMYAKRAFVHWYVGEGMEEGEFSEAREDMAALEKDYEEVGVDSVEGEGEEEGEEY
T1 sequence (P02554 whole entry): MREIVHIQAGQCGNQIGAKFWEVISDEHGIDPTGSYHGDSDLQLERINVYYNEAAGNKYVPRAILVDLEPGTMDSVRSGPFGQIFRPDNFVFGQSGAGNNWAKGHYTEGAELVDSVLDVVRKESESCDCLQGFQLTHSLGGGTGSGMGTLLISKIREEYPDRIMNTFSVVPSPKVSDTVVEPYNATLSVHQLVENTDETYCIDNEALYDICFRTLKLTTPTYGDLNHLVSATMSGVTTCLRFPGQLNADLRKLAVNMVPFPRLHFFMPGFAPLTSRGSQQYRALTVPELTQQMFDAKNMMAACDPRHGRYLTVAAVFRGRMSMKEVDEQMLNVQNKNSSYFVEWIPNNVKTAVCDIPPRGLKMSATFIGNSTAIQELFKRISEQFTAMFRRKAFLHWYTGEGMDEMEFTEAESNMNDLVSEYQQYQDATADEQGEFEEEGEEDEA
Outline: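 Pig brain tubulin (>95% pure), 10 μm in MES pH 6.8/30% glycerol buffer plus 1 mM GTP and 6 mM MgCl2, with compound at 0.5–10 μm added before polymerization. Polymerization triggered by shift from 6° C to 37° C, followed by turbidity at 350 nm; IC50 is 50% inhibition of polymerization rate.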

[2] = system: HCT116 cells; experiment: Inhibition of proliferation of the human colon tumor line HCT116 ([14C]-thymidine incorporation); format: cell-based; settings: Homo sapiens, HCT-116, 48 h, 48 hours at 37° C., read-out: Inhibition of HCT116 proliferation IC 50 (μm)
Outline: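 HCT116 cells (5000/well) in DMEM with 10% fetal calf serum incubated 48 h at 37° C with [14C]-thymidine (0.1 μCi/well) and compound up to 10 μm (DMSO ≤0.5%). Incorporated radioactivity counted; IC50 is concentration cutting radioactivity by 50% versus untreated control.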

| Compound | pIC50 [1] | pIC50 [2] |
| --- | --- | --- |
| COc1ccc(-n2nc(C)cc2C(=O)N2CCN(c3cccc(OC)c3)CC2)cc1 [3/105] | 5.35 | 6.93 |
| Cc1cc(C(=O)N2CCN(c3cc(Cl)ccc3C)CC2)n(-c2cccc(F)c2)n1 [3/21] | 5.74 | 6.33 |
| CCOc1ccccc1N1CCN(C(=O)c2cc(C)nn2-c2cccc(Cl)c2)CC1 [3/71] | 5.60 | 6.66 |
| Cc1cccc(-n2nc(C)cc2C(=O)N2CCN(c3ccc(F)cc3)CC2)c1 [3/47] | 5.10 | 6.51 |
| Cc1cc(C(=O)N2CCN(c3cccc(C)c3C)CC2)n(-c2ccccc2F)n1 [3/141] | 5.15 | 7.18 |
| Cc1cc(C(=O)N2CCN(c3ccc(F)cc3)CC2)n(-c2cccc(F)c2)n1 [3/92] | 4.90 | 6.80 |
| Cc1cc(C(=O)N2CCN(c3cccnc3)CC2)n(-c2ccccc2)n1 [3/153] | 5.66 | 7.65 |
| Cc1cc(C(=O)N2CCN(c3ccccc3C(F)(F)F)CC2)n(-c2cccc(Cl)c2)n1 [3/128] | 4.92 | 6.05 |
| COc1cccc(N2CCN(C(=O)c3cc(C)nn3-c3cccc(OC)c3)CC2)c1 [3/82] | 5.92 | 8.08 |
| Cc1cc(C(=O)N2CCN(c3cccc(Cl)c3Cl)CC2)n(-c2ccccc2)n1 [3/36] | 5.74 | 6.92 |
| Cc1cc(C(=O)N2CCN(c3cccc(Cl)c3Cl)CC2)n(-c2cccc(F)c2)n1 [3/99] | 5.70 | 7.39 |
| O=C(c1ccnn1-c1ccccc1)N1CCN(c2cccc(Cl)c2)CC1 [Example 5, [4-(3-Chlorophenyl)piperazin-1-yl](2-phenyl-2H-pyrazol-3-yl)methanone] | 5.92 | 8.39 |
| Cc1cccc(N2CCN(C(=O)c3cc(C)nn3-c3ccc(F)cc3)CC2)c1 [3/57] | 5.85 | 7.82 |
| Cc1cc(C(=O)N2CCN(c3cccc(Cl)c3)CC2)n(-c2cccc(Cl)c2)n1 [3/34] | 5.60 | 6.28 |
| Cc1cccc(-n2nc(C)cc2C(=O)N2CCN(c3cccc(Cl)c3)CC2)c1 [3/31] | 5.89 | 6.85 |
| COc1cccc(N2CCN(C(=O)c3cc(C)nn3-c3cccc(C)c3)CC2)c1 [3/49] | 6.00 | 8.10 |
| COc1cccc(N2CCN(C(=O)c3cc(C)nn3-c3cccc(Cl)c3)CC2)c1 [3/25] | 5.74 | 7.40 |
| COc1cccc(-n2nc(C)cc2C(=O)N2CCN(c3cccc(Cl)c3)CC2)c1 [3/35] | 5.30 | 6.55 |
| CCc1ccccc1N1CCN(C(=O)c2cc(C)nn2-c2cccc(OC)c2)CC1 [3/136] | 4.90 | 6.03 |
| Cc1cc(C(=O)N2CCN(c3cccc4ccccc34)CC2)n(-c2ccccc2F)n1 [3/143] | 5.60 | 6.85 |
| Cc1ccc(-n2nc(C)cc2C(=O)N2CCN(c3ccc(Cl)c(Cl)c3)CC2)cc1 [3/76] | 5.52 | 5.97 |
| Cc1cc(C(=O)N2CCN(c3ccc(Cl)c(Cl)c3)CC2)n(-c2cccc(F)c2)n1 [3/93] | 5.77 | 7.49 |
| COc1ccc(Cl)cc1N1CCN(C(=O)c2cc(C)nn2-c2ccc(F)cc2)CC1 [3/60] | 5.89 | 8.07 |
| Cc1cccc(-n2nc(C)cc2C(=O)N2CCN(c3cccc(Cl)c3Cl)CC2)c1 [3/116] | 5.52 | 6.85 |
| Cc1cc(C(=O)N2CCN(c3ccccc3C)CC2)n(-c2ccc(F)cc2)n1 [3/147] | 5.15 | 5.89 |
| Cc1cc(C(=O)N2CCN(c3ccccc3C)CC2)n(-c2cccc(Cl)c2)n1 [3/67] | 5.57 | 6.90 |
| Cc1cccc(-n2nc(C)cc2C(=O)N2CCN(c3cccc4ccccc34)CC2)c1 [3/32] | 5.52 | 6.25 |
| CSc1ccccc1N1CCN(C(=O)c2cc(C)nn2-c2cccc(Cl)c2)CC1 [3/26] | 5.82 | 7.05 |
| COc1cccc(N2CCN(C(=O)c3cc(C)nn3-c3ccc(C)cc3)CC2)c1 [3/80] | 5.30 | 7.11 |
| CCc1ccccc1N1CCN(C(=O)c2cc(C)nn2-c2ccccc2F)CC1 [3/142] | 5.42 | 6.96 |

More lines, now with the values ahead:

| pIC50 [1] | pIC50 [2] | Compound |
| --- | --- | --- |
| 5.47 | 7.22 | CCOC(=O)c1cccc(N2CCN(C(=O)c3cc(C)nn3-c3ccccc3)CC2)c1 [Example E28, ethyl ester of 3-[4-(5-methyl-2-phenyl-2H-pyrazole-3-carbonyl)piperazin-1-yl]benzoic acid] |
| 4.92 | 5.93 | CNCCNC(=O)c1cccc(N2CCN(C(=O)c3cc(C)nn3-c3ccccc3)CC2)c1 [Example E110, N-(2-Methylaminoethyl)-3-[4-(5-methyl-2-phenyl-2H-pyrazole-3-carbonyl)piperazin-1-yl]benzamide] |
| 6.54 | 8.82 | COc1cc(OC)cc(N2CCN(C(=O)c3cc(C)nn3-c3ccccc3)CC2)c1 [Example E20, [4-(3,5-Dimethoxyphenyl)piperazin-1-yl](5-methyl-2-phenyl-2H-pyrazol-3-yl)-methanone] |
| 6.10 | 7.85 | CNc1cccc(N2CCN(C(=O)c3cc(C)nn3-c3ccccc3)CC2)c1 [Example E34, [4-(3-Methylaminophenyl)piperazin-1-yl](5-methyl-2-phenyl-2H-pyrazol-3-yl)-methanone] |
| 5.85 | 6.47 | O=C(c1cc(-c2ccsc2)nn1-c1ccccc1)N1CCN(c2cccc(Cl)c2)CC1 [Example E68, [4-(3-Chlorophenyl)piperazin-1-yl][2-phenyl-5-(thiophen-3-yl)-2H-pyrazol-3-yl]methanone] |
| 5.89 | 5.64 | COc1cc(OC)cc(N2CCN(C(=O)c3cccn3-c3ccccc3)CC2)c1 [Example E51, [4-(3,5-Dimethoxyphenyl)piperazin-1-yl](1-phenyl-1H-pyrrol-2-yl)methanone hydrochloride] |
| 5.66 | 5.83 | Cc1cc(C(=O)N2CCN(c3cccc(Cl)c3)CC2)n(-c2c(F)c(F)cc(F)c2F)n1 [Example E43, [4-(3-Chlorophenyl)piperazin-1-yl][5-methyl-2-(2,3,5,6-tetrafluorophenyl)-2H-pyrazol-3-yl]methanone] |
| 6.03 | 8.74 | COc1cc(OC)cc(N2CCN(C(=O)c3cc(Br)nn3-c3ccccc3)CC2)c1 [Example E82, (5-Bromo-2-phenyl-2H-pyrazol-3-yl)[4-(3,5-dimethoxyphenyl)piperazin-1-y]-methanone] |
| 5.40 | 7.71 | Cc1cc(C(=O)N2CCN(c3cccc(Cl)c3)CC2)n(-c2ncccc2C#N)n1 [Example E38, 2-{5-[4-(3-Chlorophenyl)piperazine-1-carbonyl]-3-methylpyrazol-1-yl}nicotinonitrile] |
| 5.80 | 6.93 | Cc1cc(C(=O)N2CCN(c3cccc(C(=O)NCCO)c3)CC2)n(-c2ccccc2)n1 [Example E40, N-(2-Hydroxyethyl)-3-[4-(5-methyl-2-phenyl-2H-pyrazole-3-carbonyl)piperazin-1-yl]benzamide] |
| 5.77 | 6.63 | Cc1cc(C(=O)N2CCN(c3cccc(Cl)c3)CC2)n(-c2cc(Cl)ccc2Cl)n1 [Example E44, [4-(3-Chlorophenyl)piperazin-1-yl][2-(2,5-dichlorophenyl)-5-methyl-2H-pyrazol-3-yl]methanone] |
| 5.81 | 8.18 | Cc1cc(C(=O)N2CCN(c3ccc(F)c(Cl)c3)CC2)n(-c2ccccc2)n1 [Example E72, [4-(3-Chloro-4-fluorophenyl)piperazin-1-yl](5-methyl-2-phenyl-2H-pyrazol-3-yl)methanone] |
| 5.94 | 9.00 | COc1cc(OC)cc(N2CCN(C(=O)c3ccnn3-c3ccccc3)CC2)c1 [Example E92, [4-(3,5-Dimethoxyphenyl)piperazin-1-yl](2-phenyl-2H-pyrazol-3-yl)methanone] |
| 5.76 | 7.73 | COc1cc(OC)cc(N2CCN(C(=O)c3cc(-c4ccoc4)nn3-c3ccccc3)CC2)c1 [Example E90, [4-(3,5-Dimethoxyphenyl)piperazin-1-yl][5-(furan-3-yl)-2-phenyl-2H-pyrazol-3-yl]methanone] |
| 6.00 | 7.98 | COc1cc(OC)cc(N2CCN(C(=O)c3cc(-c4ccc[nH]4)nn3-c3ccccc3)CC2)c1 [Example E91, [4-(3,5-Dimethoxyphenyl)piperazin-1-yl][2-phenyl-5-(1H-pyrrol-2-yl)-2H-pyrazol-3-yl]methanone] |
| 5.10 | 6.08 | Cc1cc(C(=O)N2CCN(c3ccsc3)CC2)n(-c2ccccc2)n1 [Example E104, (5-Methyl-2-phenyl-2H-pyrazol-3-yl)[4-(thiophen-3-yl)piperazin-1-yl]-methanone] |
| 5.66 | 5.98 | Cc1cc(C(=O)N2CCN(c3cc(Cl)c(Br)cc3Br)CC2)n(-c2ccccc2)n1 [Example E79, [4-(2,4-Dibromo-5-chlorophenyl)piperazin-1-yl](5-methyl-2-phenyl-2H-pyrazol-3-yl)methanone] |
| 5.70 | 7.05 | NC(=O)c1cccc(N2CCN(C(=O)c3cccn3-c3ccccc3)CC2)c1 [Example E57, 3-[4-(1-Phenyl-1H-pyrrole-2-carbonyl)piperazin-1-yl]benzamide] |
| 5.02 | 6.70 | Cc1cc(C(=O)N2CCN(c3ccccc3)CC2)n(-c2ccccn2)n1 [Example E21, (5-Methyl-2-pyrid-2-yl-2H-pyrazol-3-yl)(4-phenylpiperazin-1-yl)methanone] |
